Laboratory results published in patent US11690854B2, “Methods of treating heavy menstrual bleeding” (priority 2018, dated 2023).

Tests used:
[1] = Drug interaction studies: co-administered drug pharmacokinetics in the presence of elagolix; details: for Effect of co-administration of ELAGOLIX on concentration of concomitant drug (direction of the change in AUC): established drug interactions
Protocol: (§1) Drug interaction studies were performed with ELAGOLIX and other drugs that are likely to be co-administered and with drugs commonly used as probes for pharmacokinetic interactions.

[2] = for Drugs with no observed clinically significant interactions with ELAGOLIX: co-administration with ELAGOLIX
Protocol: as §1

[3] = Ethinyl estradiol 35 mcg and triphasic norgestimate 0.18/0.215/0.25 mg once daily, elagolix 150 ms once daily, N 21

## C#CC1(O)CC[C@H]2[C@@H]3CCC4=CC(=O)CC[C@@H]4[C@H]3CC[C@@]21CC (mixture of isomers) [Norgestrel]
[1]; [3]
  Ratio of co-administered drug AUC, with elagolix vs medication alone: 0.92
  Ratio of co-administered drug Cmax, with elagolix vs medication alone: 0.89

## CN[C@H]1CC[C@@H](c2ccc(Cl)c(Cl)c2)c2ccccc21 [sertraline]
[2]
  Drugs with no observed clinically significant interactions with ELAGOLIX: No dose adjustment is required

## CC(C)c1nc(N(C)S(C)(=O)=O)nc(-c2ccc(F)cc2)c1/C=C/[C@@H](O)C[C@@H](O)CC(=O)O [Rosuvastatin]
[1]; Rosuvastatin 20 mg once daily, elagolix 300 mg twice daily × 7 days, N 10, 90% CI 0.50-0.71
  Ratio of co-administered drug AUC, with elagolix vs medication alone: 0.60
[1]; Rosuvastatin 20 mg once daily, elagolix 300 mg twice daily × 7 days, N 10, 90% CI 0.73-1.35
  Ratio of co-administered drug Cmax, with elagolix vs medication alone: 0.99
[1]
  Effect of co-administration of ELAGOLIX on concentration of concomitant drug (direction of the change in AUC): ↓ rosuvastatin

## CC(=O)N1CCN(c2ccc(OCC3COC(Cn4ccnc4)(c4ccc(Cl)cc4Cl)O3)cc2)CC1 (centres unmarked) [Ketoconazole]
[2]
  Drugs with no observed clinically significant interactions with ELAGOLIX: No dose adjustment is required

## Cc1ncc2n1-c1ccc(Cl)cc1C(c1ccccc1F)=NC2 [Midazolam]
[1]; Midazolam 2 mg single dose, elagolix 300 mg twice daily × 11 days, N 20, 90% CI 0.41-0.50
  Ratio of co-administered drug AUC, with elagolix vs medication alone: 0.46
[1]; Midazolam 2 mg single dose, elagolix 300 mg twice daily × 11 days, N 20, 90% CI 0.51-0 62
  Ratio of co-administered drug Cmax, with elagolix vs medication alone: 0.56
[1]; Midazolam 2 mg single dose, elagolix 150 ms once daily × 13 days, N 11, 90% CI 0.58-0.72
  Ratio of co-administered drug AUC, with elagolix vs medication alone: 0.65
[1]; Midazolam 2 mg single dose, elagolix 150 ms once daily × 13 days, N 11, 90% CI 0.74-0.89
  Ratio of co-administered drug Cmax, with elagolix vs medication alone: 0.81
[1]
  Effect of co-administration of ELAGOLIX on concentration of concomitant drug (direction of the change in AUC): ↓ midazolam

## CO[C@H]1/C=C/O[C@@]2(C)Oc3c(C)c(O)c4c(O)c(c(/C=N/N5CCN(C)CC5)c(O)c4c3C2=O)NC(=O)/C(C)=C\C=C\[C@H](C)[C@H](O)[C@@H](C)[C@@H](O)[C@@H](C)[C@H](OC(C)=O)[C@@H]1C [Rifampin]
[2]; established drug interactions
  Effect of concomitant drug on elagolix (direction of the change in AUC): ↑ elagolix

## C#C[C@]1(O)CC[C@H]2[C@@H]3CCC4=CC(=NO)CC[C@@H]4[C@H]3CC[C@@]21CC (mixture of isomers) [Norelgestromin]
[1]; [3]
  Ratio of co-administered drug AUC, with elagolix vs medication alone: 0.85
  Ratio of co-administered drug Cmax, with elagolix vs medication alone: 0.87

## C#C[C@]1(O)CC[C@H]2[C@@H]3CCc4cc(O)ccc4[C@H]3CC[C@@]21C [Ethinyl Estradiol]
[1]; [3]
  Ratio of co-administered drug AUC, with elagolix vs medication alone: 1.30
  Ratio of co-administered drug Cmax, with elagolix vs medication alone: 1.15

## C[C@H]1O[C@@H](O[C@H]2[C@@H](O)C[C@H](O[C@H]3[C@@H](O)C[C@H](O[C@H]4CC[C@@]5(C)[C@H](CC[C@@H]6[C@@H]5C[C@@H](O)[C@]5(C)[C@@H](C7=CC(=O)OC7)CC[C@]65O)C4)O[C@@H]3C)O[C@@H]2C)C[C@H](O)[C@@H]1O [Digoxin]
[1]; Digoxin 0.5 mg single dose, elagolix 200 ms twice daily × 10 days, N 11, 90% CI 1.17-1.35
  Ratio of co-administered drug AUC, with elagolix vs medication alone: 1.26
[1]; Digoxin 0.5 mg single dose, elagolix 200 ms twice daily × 10 days, N 11, 90% CI 1.53-1.91
  Ratio of co-administered drug Cmax, with elagolix vs medication alone: 1.71
[1]
  Effect of co-administration of ELAGOLIX on concentration of concomitant drug (direction of the change in AUC): ↑ digoxin
